Measurements as given in patent publication US20260146025A1, “CRYSTALLINE POLYMORPHS OF MITAPIVAT AND MITAPIVAT HEMISULFATE” (TIANISH LABORATORIES PRIVATE LIMITED, priority 2022, published 2026).
Counter-ions that a name gives are not always drawn.

Assay: Physical stability of polymorphs on storage, tested by PXRD
Assay type: physicochemical
Details: for physical stability (PXRD analysis): up to three months
Procedure: The powder X-ray diffraction patterns of said polymorphs of the invention were measured on a PANalytical X′Pert PRO powder diffractometer equipped with a goniometer of θ/θ configuration and X'Celerator detector. The Cu-anode X-ray tube was operated at 40 kV and 30 mA. The experiments were conducted over the 2θ range of 2.0°-50.0°, 0.0330 step size and 50 seconds step time.
In yet another embodiment, the physical stability of crystalline mitapivat hemi sulfate Form VII and crystalline mitapivat hemi sulfate Form XI were determined by storing the samples at 40° C./75% relative humidity (RH) and at 25° C./60% RH conditions for three months as shown in Table 1.

| Structure (SMILES) | PXRD (physical stability) (stored at 40° C./75% RH, 2 months) | physical stability (PXRD analysis) (25° C./60% relative humidity (RH)) | physical stability (PXRD analysis) (40° C./75% relative humidity (RH)) | PXRD (physical stability) (stored at 25° C./60% RH, 1 month) | PXRD (physical stability) (stored at 25° C./60% RH, 2 months) | PXRD (physical stability) (stored at 25° C./60% RH, 3 months) | PXRD (physical stability) (stored at 40° C./75% RH, 1 month) | PXRD (physical stability) (stored at 40° C./75% RH, 3 months) |
| --- | --- | --- | --- | --- | --- | --- | --- | --- |
| O=C(c1ccc(NS(=O)(=O)c2cccc3cccnc23)cc1)N1CCN(CC2CC2)CC1 [Mitapivat hemi sulfate Form XI, 8-quinolinesulfonamide, N-[4-[[4(cyclopropylmethyl)-1-piperazinyl]carbonyl]phenyl]-, sulfate] | Stable | – | – | – | – | – | – | – |
| O=C(c1ccc(NS(=O)(=O)c2cccc3cccnc23)cc1)N1CCN(CC2CC2)CC1 [Mitapivat hemi sulfate Form VII, 8-quinolinesulfonamide, N-[4-[[4(cyclopropylmethyl)-1-piperazinyl]carbonyl]phenyl]-, sulfate] | – | physically stable | physically stable | Stable | Stable | Stable | Stable | Stable |
